From US10857258B2, “Adhesive peptide and use therefor” (SEWON BIOTECHNOLOGY INC., priority 2015, dated 2020)
“Also recorded” adds a separate entry of the source. Residues, ends and D or L forms follow the SMILES beside them.

Assays:
osteoblast MC3TC-E1 = test: Safety in osteoblasts; assay type: cell-based, Mouse; details: 0.1 μM, 1 μM, 10 μM and 100 μM
Experimental: The safety of the present peptides was determined using osteoblast MC3TC-E1. Osteoblasts were treated with A7-1 peptide as prepared in Example 1 at the concentration of 0.1 μM, 1 μM, 10 μM and 100 μM. Then the effect of the present peptide on the proliferation (FIG. 8A), viability (FIG. 8B) and differentiation (FIG. 8C) on the cells was examined. For testing the effect on the […], MC3T3-E1 and C2C12 cell lines were treated with BMP (rhBMP2, 10 ng/ml for 3 days) and differentiation medium for bone formation for 6 days to induce differentiation. The results were examined by cell staining. It is observed that the present peptide has no effect on the proliferation rate, viability rate or whether or not the cells are differentiated.

[1] = system: anchorage dependent cells MC3T3-E1; test: Comparative experiment with soluble RGDS, CCK-8; assay type: cell-based, Mouse; details: RGDS 0, 10, 100 and 1000 μM
Experimental: The present peptide A7-1(10 μM) or A7-1 together with soluble RGDS peptide (0, 10, 100 and 1000 μM) for competition assay were added to anchorage dependent cells MC3T3-E1 in a test tube and incubated for 10 min. Then the cells were transferred to a culture plate and incubated for 10 min in a thermostatic incubator to allow the cells to attach. After 10 min, the medium was removed and the cells were washed 2 times with PBS to remove any unattached cells and a fresh medium without the peptide and CCK-8 (Dojindo) were added to the cells and incubated for 1 hr in a thermostatic incubator. Then the absorbance was measured at 450 nm. The medium mixed with CCK-8 only was used as a blank.

Molecule	effect on differentiation (osteoblast MC3TC-E1)	effect on proliferation rate (osteoblast MC3TC-E1)	effect on viability rate (osteoblast MC3TC-E1)	cell adhesiveness with RGDS in the absence of A7-1 [1]
CC(C)C[C@H](NC(=O)[C@H](CCC(N)=O)NC(=O)[C@@H](N)CCCNC(=N)N)C(=O)N[C@H](C(=O)N[C@H](C(=O)N[C@@H](CCCCN)C(=O)N[C@@H](Cc1ccccc1)C(=O)N[C@@H](CCCNC(=N)N)C(=O)N[C@@H](C)C(=O)N[C@@H](CC(C)C)C(=O)N1CCC[C@H]1C(=O)N[C@@H](CS)C(=O)O)C(C)C)C(C)C [A7-1, RQLVVKFRALPC] (H-RQLVVKFRALPC-OH)	no effect	no effect	no effect	–
RGDS	–	–	–	decreased in a concentration dependent manner; also recorded: significantly reduces the adhesiveness
